Source: US6514981B1, “Methods of modulating tyrosine protein kinase function with indolinone compounds” (Sugen, Inc., priority 1998, dated 2003)

How the values were obtained:
Type in all cases: cell-based
[1] = test system: 3T3EGFR; assay: BrdU incorporation assay, 3T3EGFR, EGF
[2] = molecular target: T1, IGF-1 receptor (Homo sapiens, UniProt P08069); assay: IGF-1 receptor phosphorylation assay in cells (ELISA); details: 3T3-L1/IGF-1R cells, IGF-1 stimulation
T1 construct: expressed in transfected cells; host or cells: 3T3-L1/IGF-1R (also written NIH3T3/IGF-1R)
Procedure: The following protocol was used to measure phosphotyrosine level on IGF-1 receptor, which indicates IGF-1 receptor tyrosine kinase activity.
a. The cell line used in this assay is 3T3-L1/IGF-1R, a cell line genetically engineered to overexpresses IGF-1 receptor.
2. Resuspend the cells in fresh DMEM+10% FBS+2mM L-Glutamine, and transfer to 96-well tissue culture plate (Corning, 250806-96) at 20,000 cells/well (100 μL/well). Incubate for 1 day then replace medium to serum-free medium (90/μL) and incubate in 5% CO2 and 37° C. overnight.
1. Coat the ELISA plate (Corning 25805-96) with Anti-IGF-1R Antibody at 0.5 μg/well in 100 μL PBS at least 2 hours.
2. Dilute drug stock (in 100% DMSO) 1:10 with DMEM in 96-well poly-propylene plate, and transfer 10 μL/well of this solution to the cells to achieve final drug dilution 1:100, and final DMSO concentration of 1.0%. Incubate the cells in 5% C02 at 37° C. for 2 hours.
4. After drug incubation for two hours, transfer 10 μL/well of 200 nM IGF-1 Ligand m PBS to the cells (Final Conc.=20 nM), and incubate at 5% CO2 at 37° C. for 10 minutes.
5. Remove media and add 100 μL/well HNTG* and shake for 10 minutes. Look at cells under microscope to see if they are adequately lysed.
6. […]
The IC50 values measured in the IGF-1 receptor phosphorylation assay for the compound of formula VI are depicted in Table 4: […]

[3] = molecular target: T2, chimeric receptor containing the EGFR extracellular domain and intracellular HER2 kinase domain (Homo sapiens, UniProt P04626); assay: EGF receptor-HER2 phosphorylation assay in whole EGFR-NIH3T3 cells (ELISA); details: NIH3T3 cells with chimeric receptor, EGF stimulation
T2 construct: P00533 (Epidermal growth factor receptor)
Procedure: HER2 kinase activity in whole EGFR-NIH3T3 cells was measured as described below. 1. Coat ELISA plates (Corning, 96 well, Cat. #25805-96) with 05-101 antibody at 0.5 µg per well in PBS, 100 μL final volume/well, and store overnight at 4° C. Coated plates are good for up to 10 days when stored at 4° C. 1. An NIH3T3 cell line overexpressing a chimeric receptor containing the EGFR extracellular domain and intracellular HER2 kinase domain can be used for this assay. 3. Resuspend cells in seeding medium (DMEM, 0.5% bovine serum), and count the cells using trypan blue. Viability above 90% is acceptable. Seed cells in DMEM medium (0.5% bovine serum) at a density of 10,000 cells per well, 100 μL per well, in a 96 well microtiter plate. Incubate seeded cells in 5% CO2 at 37° C. for about 40 hours. 1. Check seeded cells for contamination using an inverted microscope. […] The maximum phosphotyrosine signal is determined by subtracting the value of the negative controls from the positive controls. The percent inbibitation of phosphotyrosine content for extract-containing wells is then calculated, after subtraction of the negative controls. The IC50 values measured in the EGF receptor-HER2 phosphorylation assay for the compound of formula VI are depicted in Table 6: […]

[4] = test system: SKOV3 cells; assay: Growth of SKOV3 cells (SRB); details: Homo sapiens, SK-OV-3, 2%
Excerpt: The assay is the same as the assay set forth in EXAMPLE 10, except that SKOV3 cells (ATCC HTB77) are used instead of A431 cells.
Compound of formula VI inhibited the growth rate of SKOV3 cells as illustrated in Table 10.

T2 sequence (P04626 720-987 limits assumed, change not shown): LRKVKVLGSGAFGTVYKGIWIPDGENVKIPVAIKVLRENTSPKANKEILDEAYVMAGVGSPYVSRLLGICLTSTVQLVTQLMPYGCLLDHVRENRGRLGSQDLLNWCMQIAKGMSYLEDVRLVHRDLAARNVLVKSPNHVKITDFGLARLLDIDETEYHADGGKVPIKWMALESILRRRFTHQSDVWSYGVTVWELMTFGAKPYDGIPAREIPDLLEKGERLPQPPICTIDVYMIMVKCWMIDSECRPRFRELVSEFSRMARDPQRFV
T1 sequence (P08069 31-1367): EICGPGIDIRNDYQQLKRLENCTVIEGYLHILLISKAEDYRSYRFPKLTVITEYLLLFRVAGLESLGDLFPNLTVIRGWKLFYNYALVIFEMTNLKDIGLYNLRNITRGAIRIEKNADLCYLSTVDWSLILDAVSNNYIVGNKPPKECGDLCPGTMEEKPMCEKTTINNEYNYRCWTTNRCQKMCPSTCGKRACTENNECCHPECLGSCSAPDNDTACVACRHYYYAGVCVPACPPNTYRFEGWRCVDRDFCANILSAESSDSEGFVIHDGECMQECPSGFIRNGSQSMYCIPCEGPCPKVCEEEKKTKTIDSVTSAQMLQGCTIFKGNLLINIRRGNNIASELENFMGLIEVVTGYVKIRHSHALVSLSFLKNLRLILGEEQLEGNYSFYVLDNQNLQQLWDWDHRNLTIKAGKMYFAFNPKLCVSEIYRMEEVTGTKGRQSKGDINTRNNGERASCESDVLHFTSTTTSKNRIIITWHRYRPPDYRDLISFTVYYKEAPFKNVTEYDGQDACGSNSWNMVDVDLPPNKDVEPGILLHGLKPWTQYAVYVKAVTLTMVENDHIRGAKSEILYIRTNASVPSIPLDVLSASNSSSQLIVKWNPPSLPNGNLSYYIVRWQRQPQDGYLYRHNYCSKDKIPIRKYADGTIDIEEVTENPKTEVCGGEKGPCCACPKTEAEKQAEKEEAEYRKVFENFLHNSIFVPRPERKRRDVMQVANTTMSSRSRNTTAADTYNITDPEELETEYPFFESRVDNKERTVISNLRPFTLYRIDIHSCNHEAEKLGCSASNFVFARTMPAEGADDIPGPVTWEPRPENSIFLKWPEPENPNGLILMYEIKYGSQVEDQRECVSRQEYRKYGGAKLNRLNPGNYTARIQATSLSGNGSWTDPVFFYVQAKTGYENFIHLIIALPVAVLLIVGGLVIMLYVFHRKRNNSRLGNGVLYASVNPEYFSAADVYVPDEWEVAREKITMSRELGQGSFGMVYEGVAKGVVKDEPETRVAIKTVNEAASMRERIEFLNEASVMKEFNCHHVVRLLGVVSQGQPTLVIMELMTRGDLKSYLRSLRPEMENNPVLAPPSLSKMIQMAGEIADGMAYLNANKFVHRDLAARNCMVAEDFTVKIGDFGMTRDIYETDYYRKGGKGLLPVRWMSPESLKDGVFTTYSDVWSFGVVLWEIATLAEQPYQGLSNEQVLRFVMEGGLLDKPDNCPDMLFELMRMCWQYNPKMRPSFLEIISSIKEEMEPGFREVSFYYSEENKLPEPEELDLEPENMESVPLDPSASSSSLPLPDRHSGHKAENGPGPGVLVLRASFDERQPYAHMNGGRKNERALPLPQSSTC

`Cc1cc(/C=C2/C(=O)Nc3ccccc32)c(C)c2c1[nH]c1ccccc12` [VI] showed an IC50 [1] of 7.03 µM, an IC50 [2] of 8.52 µM and an IC50 [3] of 8.72 µM. For the same molecule, the IC50 [4] was 1.08 µM.
